Measurements as given in patent US8049034B2, “Biphenyl compound selective agonists of gamma RAR receptors” (Galderma Research & Development, priority 2005, dated 2011).

What was measured:
Type in all cases: cell-based
RAR beta = molecular target: T1, RAR beta (Homo sapiens, UniProt P10826); test: Transactivation test (luciferase reporter, HeLa stable transfectants), RAR beta; conditions: apparent Kd from Schild regression, cross curves against reference antagonist, HeLa cells; read-out: RAR beta Kdapp
T1 sequence (P10826 183-417 limits assumed): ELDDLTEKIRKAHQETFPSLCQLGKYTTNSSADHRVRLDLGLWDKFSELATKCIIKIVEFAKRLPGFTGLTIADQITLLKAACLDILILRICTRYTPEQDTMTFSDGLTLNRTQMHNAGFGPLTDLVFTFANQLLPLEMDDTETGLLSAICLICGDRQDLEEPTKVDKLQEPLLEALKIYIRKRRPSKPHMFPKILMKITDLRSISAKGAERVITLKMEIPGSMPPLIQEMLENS
Protocol: (§1) The activation of the receptors by an agonist (activator) in HeLa cells results in the expression of a reporter gene, luciferase, which, in the presence of a substrate, generates light. It is thus possible to measure the activation of the receptors by quantifying the luminescence produced after incubation of the cells in the presence of a reference antagonist. The activating products displace the antagonist from its site, thus allowing activation of the receptor. The activity is measured by quantifying the increase in the light produced. This measurement makes it possible to determine the activator activity of the compound that can be used in the invention.
(§2) In this study, a constant which represents the affinity of the molecule for the receptor is determined. Since this value can fluctuate according to the basal activity and the expression of the receptor, it is designated apparent Kd (KdApp).
(§3) The test product is used at 10 concentrations and the reference antagonist at 7 concentrations. In each well (of a 96-well plate), the cells are in contact with one concentration of the test product and one concentration of the reference antagonist.
(§4) Measurements are also carried out for the total agonist control, otherwise known as 100% control (4-[2-(5,5,8,8-tetramethyl-5,6,7,8-tetrahydronaphthalen-2-yl)propenyl]benzoic acid), and the inverse agonist control, otherwise known as 0% control (4-{(E)-3-[4-(4-tert-butylphenyl)-5,5,8,8-tetramethyl-5,6,7,8-tetrahydronaphthalen-2-yl)]-3-oxopropenyl}benzoic acid).
(§5) In the case of an agonist, the AC50 is calculated by plotting the curve of the product at the concentration of the reference ligand giving 80% activation. The percentage activation which corresponds to the maximum level of activity obtained is also measured.
(§6) The HeLa cell lines used are stable transfectants containing the plasmids ERE-βGlob-Luc-SV-Neo (reporter gene) and RAR (α, β, γ) ER-DBO-puro. These cells are seeded into 96-well plates at a rate of 10 000 cells per well in 100 μl of DMEM medium without phenol red and supplemented with 10% defatted calf serum. The plates are then incubated at 37° C., 7% CO2 for 4 hours.
(§7) The various dilutions of the test product, of the reference ligand
(§8) (4-(5,5-dimethyl-8-p-tolyl-5,6-dihydronaphthalen-2-ylethynyl)benzoic acid), of the 100% control (100 nM 4-[2-(5,5,8,8-tetramethyl-5,6,7,8-tetrahydronaphthalen-2-yl)propenyl]benzoic acid) and of the 0% control (500 nM 4-{(E)-3-[4-(4-tert-butylphenyl)-5,5,8,8-tetramethyl-5,6,7,8-tetrahydronaphthalen-2-yl)]-3-oxopropenyl}benzoic acid) are added at a rate of 5 μl per well. The plates are then incubated for 18 hours at 37° C., 7% CO2.
(§9) The culture medium is removed by turning the plates over, and 100 μl of a 1:1 PBS (phosphate buffered solution)/luciferin mixture are added to each well. After 5 minutes, the plates are read using the luminescence reader.

RAR alpha = molecular target: T2, RAR alpha (Homo sapiens, UniProt P10276); test: Transactivation test (luciferase reporter, HeLa stable transfectants), RAR alpha; conditions: apparent Kd from Schild regression, cross curves against reference antagonist, HeLa cells; read-out: RAR alpha Kdapp
T2 sequence (P10276 183-417 limits assumed): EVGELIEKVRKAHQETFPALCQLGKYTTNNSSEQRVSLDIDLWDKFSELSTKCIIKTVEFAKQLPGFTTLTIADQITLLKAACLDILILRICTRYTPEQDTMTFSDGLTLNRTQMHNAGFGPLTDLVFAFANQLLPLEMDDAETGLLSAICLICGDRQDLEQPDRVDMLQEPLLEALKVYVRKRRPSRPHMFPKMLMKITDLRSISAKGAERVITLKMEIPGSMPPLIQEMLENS
Protocol: as §1, §2, §3, §4, §5, §6, §7, §8, §9

RAR gamma = molecular target: T3, RAR gamma (Homo sapiens, UniProt P13631); test: Transactivation test (luciferase reporter, HeLa stable transfectants), RAR gamma; conditions: apparent Kd from Schild regression, cross curves against reference antagonist, HeLa cells; read-out: RAR gamma Kdapp
T3 construct: RAR gamma Kdapp
T3 sequence (P13631 185-419 limits assumed): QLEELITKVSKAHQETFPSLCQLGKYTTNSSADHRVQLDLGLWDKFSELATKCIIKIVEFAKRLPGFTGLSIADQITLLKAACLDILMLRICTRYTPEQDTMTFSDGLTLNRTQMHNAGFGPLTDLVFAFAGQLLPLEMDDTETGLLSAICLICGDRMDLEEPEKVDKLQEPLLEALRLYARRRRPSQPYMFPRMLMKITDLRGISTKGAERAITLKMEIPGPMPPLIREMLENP
Protocol: as §1, §2, §3, §4
In the case of an agonist, the AC50 is calculated by plotting the curve of the product at the concentration of the reference ligand giving 80% activation. The percentage activation which corresponds to the maximum level of activity obtained is also measured. […]
as §9

Compound | Kd (RAR beta) | Kd (RAR alpha) | Kd (RAR gamma)
CC1(C)CCC(C)(C)c2cc(-c3cc(-c4ccc(C(=O)O)cc4)ccc3-c3ccccc3)ccc21 [Example 14, 2′-(5,5,8,8-Tetramethyl-5,6,7,8-tetrahydronaphthalen-2-yl)-[1,1′:4′,1″]-tert-phenyl-4″-carboxylic acid] | 1 nM | 2 nM | 
Cc1cc(-c2ccc(-c3ccccc3)c(-c3ccc4c(c3)C(C)(C)CCC4(C)C)c2)ccc1C(=O)O [Example 41, 3″-Methyl-2′-(5,5,8,8-tetramethyl-5,6,7,8-tetrahydronaphthalen-2-yl)-[1,1′:4,1″]-tert-phenyl-4″-carboxylic acid] | 1 nM | 2 nM | 0.25 nM
CC1(C)CCC(C)(C)c2cc(-c3cc(-c4ccc(C(=O)O)cc4O)ccc3-c3ccccc3)ccc21 [Example 42, 2″-Hydroxy-2′-(5,5,8,8-tetramethyl-5,6,7,8-tetrahydronaphthalen-2-yl)-[1,1′:4,1″]-tert-phenyl-4″-carboxylic acid] | 4 nM | 8 nM | 
COc1cc(C(=O)O)ccc1-c1ccc(-c2ccccc2)c(-c2ccc3c(c2)C(C)(C)CCC3(C)C)c1 [Example 44, 2″-Methoxy-2′-(5,5,8,8-tetramethyl-5,6,7,8-tetrahydronaphthalen-2-yl)-[1,1′:4,1″]-tert-phenyl-4″-carboxylic acid] | 2 nM | 4 nM | 0.5 nM
CC1(C)CCC(C)(C)c2cc(-c3cc(-c4ccc(C(=O)O)c(O)c4)ccc3-c3ccccc3)ccc21 [Example 46, 3″-Hydroxy-2′-(5,5,8,8-tetramethyl-5,6,7,8-tetrahydronaphthalen-2-yl)-[1,1′:4,1″]-tert-phenyl-4″-carboxylic acid] | 1 nM | 2 nM | 0.25 nM
CC1(C)CCC(C)(C)c2cc(-c3cc(-c4ccc(C(=O)O)cn4)ccc3-c3ccccc3)ccc21 [Example 47, 6-[2-(5,5,8,8-Tetramethyl-5,6,7,8-tetrahydronaphthalen-2-yl)biphenyl-4-yl]nicotinic acid] | 1 nM | 4 nM | 
